Source: BindingDB's records for patent US20250034122 (Mission Therapeutics, 2025)

Biological target: T1, Ubiquitin carboxyl-terminal hydrolase 30 (Homo sapiens, UniProt Q70CQ3)
T1 sequence (Q70CQ3 whole entry): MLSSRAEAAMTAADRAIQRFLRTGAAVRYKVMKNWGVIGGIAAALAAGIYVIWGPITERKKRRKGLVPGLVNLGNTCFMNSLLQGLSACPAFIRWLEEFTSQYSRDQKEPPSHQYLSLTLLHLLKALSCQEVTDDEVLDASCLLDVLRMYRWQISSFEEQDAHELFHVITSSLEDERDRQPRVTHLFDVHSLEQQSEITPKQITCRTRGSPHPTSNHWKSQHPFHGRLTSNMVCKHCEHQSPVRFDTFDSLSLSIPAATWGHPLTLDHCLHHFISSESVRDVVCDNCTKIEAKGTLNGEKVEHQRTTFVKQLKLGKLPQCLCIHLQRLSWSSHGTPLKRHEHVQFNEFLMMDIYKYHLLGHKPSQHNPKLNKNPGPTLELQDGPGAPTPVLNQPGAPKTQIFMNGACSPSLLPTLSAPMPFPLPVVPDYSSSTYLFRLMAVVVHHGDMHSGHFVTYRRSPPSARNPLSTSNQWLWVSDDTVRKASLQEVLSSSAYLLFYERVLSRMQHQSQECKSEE
Assay: USP30 Biochemical IC50 Assay
Description: A typical 8-point dilution series would be 100, 30, 10, 3, 1, 0.3, 0.1, 0.03 μM final.

Question: With `N#CN1C[C@H](NC(=O)C2NC(c3cccc(C(F)(F)F)c3)=CO2)C[C@H]1Cn1cccn1` (stereo partly specified) [US20250034122, Example 30] as the compound, how does the IC50 read?
Answer: 11 nM
